The text below walks through data of ChEMBL document CHEMBL1201862, “PubChem BioAssay data set” (2004).

Assay type in all cases: functional
For assay [1], the target named is T1, Sentrin-specific protease 6 (Homo sapiens, UniProt Q9GZR1).
T1 sequence (Q9GZR1 whole entry): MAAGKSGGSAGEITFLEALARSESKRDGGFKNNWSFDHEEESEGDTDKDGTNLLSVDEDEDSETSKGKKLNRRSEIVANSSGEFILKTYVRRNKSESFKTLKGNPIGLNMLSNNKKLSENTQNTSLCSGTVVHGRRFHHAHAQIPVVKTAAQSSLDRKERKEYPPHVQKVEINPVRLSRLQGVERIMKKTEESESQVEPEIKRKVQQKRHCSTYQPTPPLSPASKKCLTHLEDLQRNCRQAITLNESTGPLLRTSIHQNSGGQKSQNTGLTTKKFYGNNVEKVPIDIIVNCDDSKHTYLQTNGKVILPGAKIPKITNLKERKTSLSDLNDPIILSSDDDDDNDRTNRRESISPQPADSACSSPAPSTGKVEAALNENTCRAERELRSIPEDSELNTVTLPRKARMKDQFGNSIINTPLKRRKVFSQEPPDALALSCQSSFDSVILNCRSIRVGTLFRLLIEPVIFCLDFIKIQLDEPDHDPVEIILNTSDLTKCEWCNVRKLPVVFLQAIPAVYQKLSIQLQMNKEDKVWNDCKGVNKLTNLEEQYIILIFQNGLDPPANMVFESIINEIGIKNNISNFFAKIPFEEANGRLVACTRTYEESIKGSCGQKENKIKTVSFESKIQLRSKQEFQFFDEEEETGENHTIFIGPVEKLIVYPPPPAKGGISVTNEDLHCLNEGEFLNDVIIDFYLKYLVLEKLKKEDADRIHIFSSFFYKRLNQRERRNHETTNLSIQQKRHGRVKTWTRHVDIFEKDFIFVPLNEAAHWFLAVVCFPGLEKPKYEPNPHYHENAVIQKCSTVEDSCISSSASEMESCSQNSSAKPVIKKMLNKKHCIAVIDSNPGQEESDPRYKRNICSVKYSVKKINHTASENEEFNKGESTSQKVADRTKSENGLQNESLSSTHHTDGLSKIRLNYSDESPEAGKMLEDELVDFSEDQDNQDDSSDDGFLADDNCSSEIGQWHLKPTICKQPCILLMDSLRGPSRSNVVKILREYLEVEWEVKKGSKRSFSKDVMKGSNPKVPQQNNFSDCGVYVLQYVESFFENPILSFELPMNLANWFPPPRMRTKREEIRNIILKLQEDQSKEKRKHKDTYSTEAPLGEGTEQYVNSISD
The experiment in a line: SAR Analysis of small molecule inhibitors of Sentrin-specific protease 6 (SENP6) using a Luminescent assay. [Related pubchem assays (depositor defined):AID2582, AID2599].

Assay [2] concerns the target cAMP-dependent protein kinase catalytic subunit PRKX (Homo sapiens, UniProt P51817).
Assay [3] addresses T2, Serine/threonine-protein kinase TAO1 (Homo sapiens, UniProt Q7L7X3).
T2 sequence (Q7L7X3 whole entry): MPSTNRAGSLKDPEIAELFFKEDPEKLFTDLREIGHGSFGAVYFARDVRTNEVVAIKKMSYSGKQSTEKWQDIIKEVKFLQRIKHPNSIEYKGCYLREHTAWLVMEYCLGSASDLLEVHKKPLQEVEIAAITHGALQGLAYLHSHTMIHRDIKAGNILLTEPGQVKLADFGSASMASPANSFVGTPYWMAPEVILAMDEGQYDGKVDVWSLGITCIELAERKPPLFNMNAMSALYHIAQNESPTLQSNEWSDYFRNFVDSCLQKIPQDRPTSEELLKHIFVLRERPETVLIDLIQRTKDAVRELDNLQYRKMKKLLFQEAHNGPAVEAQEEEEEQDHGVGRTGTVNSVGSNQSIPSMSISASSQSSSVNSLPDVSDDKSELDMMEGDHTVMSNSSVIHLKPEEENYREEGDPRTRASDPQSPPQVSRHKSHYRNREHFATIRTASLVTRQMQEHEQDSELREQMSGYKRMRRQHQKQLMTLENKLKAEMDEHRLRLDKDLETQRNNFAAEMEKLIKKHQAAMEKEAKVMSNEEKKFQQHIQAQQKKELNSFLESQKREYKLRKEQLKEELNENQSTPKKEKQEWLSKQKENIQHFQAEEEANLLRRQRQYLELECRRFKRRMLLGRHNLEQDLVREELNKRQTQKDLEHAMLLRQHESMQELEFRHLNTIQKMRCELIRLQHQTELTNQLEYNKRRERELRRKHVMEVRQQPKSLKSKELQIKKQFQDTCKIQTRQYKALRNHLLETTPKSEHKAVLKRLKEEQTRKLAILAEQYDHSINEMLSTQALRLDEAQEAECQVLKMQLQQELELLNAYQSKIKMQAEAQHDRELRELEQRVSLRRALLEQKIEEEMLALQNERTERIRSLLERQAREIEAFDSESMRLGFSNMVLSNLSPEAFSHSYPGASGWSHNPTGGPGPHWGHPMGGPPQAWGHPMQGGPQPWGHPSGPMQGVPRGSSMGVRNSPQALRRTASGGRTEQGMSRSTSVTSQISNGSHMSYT

The target in assay [4] is High affinity nerve growth factor receptor (Homo sapiens, UniProt P04629).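 Also: NTRK1 tested as one member of a kinome-wide profiling panel.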
Sequence of High affinity nerve growth factor receptor (P04629 whole entry): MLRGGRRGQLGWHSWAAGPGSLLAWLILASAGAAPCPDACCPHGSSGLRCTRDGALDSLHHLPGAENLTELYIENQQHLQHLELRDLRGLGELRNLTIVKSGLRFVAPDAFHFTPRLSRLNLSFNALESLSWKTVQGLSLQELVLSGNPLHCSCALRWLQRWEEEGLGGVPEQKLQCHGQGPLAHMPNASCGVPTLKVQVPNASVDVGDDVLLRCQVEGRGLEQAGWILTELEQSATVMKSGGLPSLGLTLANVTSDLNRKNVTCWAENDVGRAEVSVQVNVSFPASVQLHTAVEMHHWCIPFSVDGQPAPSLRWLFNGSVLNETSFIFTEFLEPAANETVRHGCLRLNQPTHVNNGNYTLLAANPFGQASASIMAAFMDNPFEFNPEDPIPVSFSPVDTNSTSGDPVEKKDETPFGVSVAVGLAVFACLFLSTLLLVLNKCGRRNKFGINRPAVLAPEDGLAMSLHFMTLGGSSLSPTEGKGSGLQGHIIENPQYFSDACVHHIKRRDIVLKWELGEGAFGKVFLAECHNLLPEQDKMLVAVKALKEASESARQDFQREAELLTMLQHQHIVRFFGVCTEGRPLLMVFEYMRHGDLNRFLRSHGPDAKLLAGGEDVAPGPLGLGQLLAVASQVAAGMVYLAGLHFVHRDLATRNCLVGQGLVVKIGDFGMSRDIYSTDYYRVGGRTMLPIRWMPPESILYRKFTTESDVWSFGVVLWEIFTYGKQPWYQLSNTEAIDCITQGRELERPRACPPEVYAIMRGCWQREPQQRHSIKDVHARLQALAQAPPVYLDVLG
Assay [5] has as its target Mitogen-activated protein kinase 8 (Homo sapiens, UniProt P45983).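 Also: value comes from one member of a kinome-wide kinase profiling panel.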
The target in assay [6] is Calcium/calmodulin-dependent protein kinase type II subunit alpha (Homo sapiens, UniProt Q9UQM7). As to the kind of experiment: Navigating the Kinome. Panel member name: CAMK2A.
Sequence of Calcium/calmodulin-dependent protein kinase type II subunit alpha (Q9UQM7 whole entry): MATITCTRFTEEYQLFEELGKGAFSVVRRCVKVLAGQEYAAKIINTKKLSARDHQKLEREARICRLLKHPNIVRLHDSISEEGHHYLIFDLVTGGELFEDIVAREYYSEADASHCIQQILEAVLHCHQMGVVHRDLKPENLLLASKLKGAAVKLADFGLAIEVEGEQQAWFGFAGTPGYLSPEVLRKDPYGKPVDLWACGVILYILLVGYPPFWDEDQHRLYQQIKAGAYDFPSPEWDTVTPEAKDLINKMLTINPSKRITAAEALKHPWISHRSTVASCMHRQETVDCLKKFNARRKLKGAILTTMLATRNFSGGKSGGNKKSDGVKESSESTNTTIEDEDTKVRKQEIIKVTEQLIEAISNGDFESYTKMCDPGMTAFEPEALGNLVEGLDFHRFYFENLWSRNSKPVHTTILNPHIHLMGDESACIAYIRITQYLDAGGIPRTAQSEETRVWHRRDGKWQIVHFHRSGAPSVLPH

Active and inactive are the calls of the source.

Sequence of cAMP-dependent protein kinase catalytic subunit PRKX (P51817 whole entry): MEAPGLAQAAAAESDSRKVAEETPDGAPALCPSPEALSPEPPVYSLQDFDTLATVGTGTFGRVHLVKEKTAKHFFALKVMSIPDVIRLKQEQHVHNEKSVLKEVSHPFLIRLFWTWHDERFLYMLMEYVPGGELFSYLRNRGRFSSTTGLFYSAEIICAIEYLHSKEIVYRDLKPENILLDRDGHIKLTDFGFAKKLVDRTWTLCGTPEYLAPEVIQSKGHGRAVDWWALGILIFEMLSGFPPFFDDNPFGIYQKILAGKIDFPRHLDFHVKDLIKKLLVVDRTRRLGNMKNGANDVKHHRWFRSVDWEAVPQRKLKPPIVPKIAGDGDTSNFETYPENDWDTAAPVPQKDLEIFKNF
Sequence of Mitogen-activated protein kinase 8 (P45983 whole entry): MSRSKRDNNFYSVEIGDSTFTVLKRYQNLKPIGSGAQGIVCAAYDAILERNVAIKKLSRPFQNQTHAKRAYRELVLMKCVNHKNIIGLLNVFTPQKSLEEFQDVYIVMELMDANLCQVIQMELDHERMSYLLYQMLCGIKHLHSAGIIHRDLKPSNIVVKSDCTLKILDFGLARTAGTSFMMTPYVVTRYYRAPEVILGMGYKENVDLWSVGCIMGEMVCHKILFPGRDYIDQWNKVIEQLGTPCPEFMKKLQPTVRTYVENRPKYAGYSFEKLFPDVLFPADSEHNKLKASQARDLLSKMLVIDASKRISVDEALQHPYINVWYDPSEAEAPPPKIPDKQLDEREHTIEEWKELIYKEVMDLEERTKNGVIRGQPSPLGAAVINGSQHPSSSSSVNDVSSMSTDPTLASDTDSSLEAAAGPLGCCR

Usually IC50 stands for the concentration needed to halve the response being measured. Consider `COc1cc2cc(NC(C)=O)cc(NCc3ccccc3)c2cc1OC`, for which the IC50 in assay [1] is 40400 nM (active).

As to `CN(C)c1cc(N/N=C\c2ccccc2)nc(N(C)C)n1`, the 50% inhibitory concentration (IC50) in assay [1] was 11300 nM (active).

As a reminder, the Ki is a dissociation constant, usually derived from enzyme kinetics or from competition with a known ligand. With `O=C1Nc2cc(-c3ccc(O)cc3)ccc2C1=Cc1ccc[nH]1`, the Ki in assay [2] is 2000 nM (active); in assay [3], 398 nM (active); in assay [4] it was 2000 nM (active); in assay [5] it was > 5010 nM (inactive); in assay [6] it was 2510 nM (active).

For the molecule `NC(COc1cncc(-c2ccc3c(c2)C(=Cc2ccc[nH]2)C(=O)N3)c1)Cc1ccccc1` (configuration not stated), the Ki was 39.8 nM (active) in assay [2]; 251 nM (active) in assay [3]; 63.1 nM (active) in assay [4]; 1260 nM (active) in assay [5]; 63.1 nM (active) in assay [6].
